Assay results taken from patent US20160106439A1, “PNEUMATIC TOURNIQUET” (BIONUMERIK PHARMACEUTICALS, INC., priority 2013, published 2016).
Entries after “also recorded” stand apart in the source; their conditions may differ. Read-outs that look alike come from different tables or passages of the source.

How the values were obtained:
Recombinant human Trx [1] = target: T1, Recombinant human Trx (Homo sapiens, UniProt P10599); experiment: IEF PAGE of Trx incubated with Tavocept; type: binding; set-up: purchased Sigma (SigmaAldrich); host or cells: E. coli; settings: Tavocept 10 mM, 37° C.
T1 sequence (P10599 1-105): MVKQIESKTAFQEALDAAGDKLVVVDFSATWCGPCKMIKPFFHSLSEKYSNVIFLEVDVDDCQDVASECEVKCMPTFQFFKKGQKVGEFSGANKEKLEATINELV

[2] = target: T2, human glutaredoxin (Grx1) (Homo sapiens, UniProt P35754); experiment: Mass Spectroscopy of Grx-Tavocept reaction; type: binding; settings: 40 mM Tavocept, 4° C. overnight
T2 construct: 6xHis (TEV-cleavable) (N, cleaved yes); made in house; host or cells: E. coli BL21 (RIPL)
T2 sequence (P35754 whole entry): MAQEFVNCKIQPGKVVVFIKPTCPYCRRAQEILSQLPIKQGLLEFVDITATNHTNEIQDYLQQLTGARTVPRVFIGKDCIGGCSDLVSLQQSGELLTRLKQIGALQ

Recombinant human Trx [3] = target: T1, Recombinant human Trx; experiment: Native PAGE of Trx incubated with Tavocept; type: binding; set-up: purchased Sigma (SigmaAldrich); host or cells: E. coli; settings: Tavocept 10 mM, 37° C., 0-48 hours
Procedure: (§1) Recombinant human Trx (1.5 mg, SigmaAldrich) was reduced using a vast excess of DTT (50 mM) in Tris buffer (100 mM, pH 8.0) at 37° C. for 50 minutes. […] (final reactions volumes were approximately 160 μL). At time selected times (0-48 hours), aliquots were removed and subjected to TrisGlycine Native or TrisGlycine SDS PAGE analysis. Gels were fixed in acetic acid/methanol and stained with Coomassie R-250.
as §1, with “mg)” for “mg, SigmaAldrich)”, “incubation reaction” for “reactions”

bovine TrxR = target: T3, bovine TrxR (Bos taurus, UniProt O62768); experiment: NADPH oxidation assay, Reaction A (TrxR alone); type: biochemical; settings: without Trx, disulfide 0.5 mM
T3 construct: purchased American Diagnostica
T3 sequence (O62768 whole entry): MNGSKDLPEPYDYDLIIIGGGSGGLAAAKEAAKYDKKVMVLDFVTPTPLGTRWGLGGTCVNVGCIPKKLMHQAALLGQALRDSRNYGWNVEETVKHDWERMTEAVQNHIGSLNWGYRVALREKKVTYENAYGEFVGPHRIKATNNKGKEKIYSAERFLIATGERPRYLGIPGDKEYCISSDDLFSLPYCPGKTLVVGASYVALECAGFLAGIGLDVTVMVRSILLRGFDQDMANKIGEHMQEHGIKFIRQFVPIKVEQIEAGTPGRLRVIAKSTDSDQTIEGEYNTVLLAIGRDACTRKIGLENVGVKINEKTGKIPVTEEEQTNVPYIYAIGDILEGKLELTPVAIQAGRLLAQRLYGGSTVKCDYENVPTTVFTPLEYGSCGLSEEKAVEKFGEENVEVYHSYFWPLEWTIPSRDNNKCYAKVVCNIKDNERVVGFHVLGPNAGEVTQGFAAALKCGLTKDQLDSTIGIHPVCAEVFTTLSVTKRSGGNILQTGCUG
Procedure: See, Luthman M and Holmgren A. Rat liver thioredoxin and thioredoxin reductase: purification and characterization. Biochemistry 21:6628-6633 (1982). A typical assay mixture contained buffer (50 mM potassium phosphate, pH 7.0, 1 mM EDTA), NADPH (200 μM), and bovine TrxR (1.6 μg, 0.138 μM). Assays were run with and without recombinant human Trx (4.8 μM). […] All disulfides were added to reactions as 10x solutions in buffer. The total volume of each reaction was 0.1 mL. Reactions were initiated by the addition of TrxR and were incubated at 25° C. for 40 minutes. Reactions were analyzed using a Molecular Devices SpectraMax Plus UV/vis plate reader and the activity was calculated using a 4 minute linear portion of each assay.

ROS1 kinase = ROS1 kinase (Homo sapiens, UniProt P08922); settings: for effect on crizotinib inhibition of ROS1 kinase activity: ATP and polyGT
Sequence of ROS1 kinase (P08922 1883-2347): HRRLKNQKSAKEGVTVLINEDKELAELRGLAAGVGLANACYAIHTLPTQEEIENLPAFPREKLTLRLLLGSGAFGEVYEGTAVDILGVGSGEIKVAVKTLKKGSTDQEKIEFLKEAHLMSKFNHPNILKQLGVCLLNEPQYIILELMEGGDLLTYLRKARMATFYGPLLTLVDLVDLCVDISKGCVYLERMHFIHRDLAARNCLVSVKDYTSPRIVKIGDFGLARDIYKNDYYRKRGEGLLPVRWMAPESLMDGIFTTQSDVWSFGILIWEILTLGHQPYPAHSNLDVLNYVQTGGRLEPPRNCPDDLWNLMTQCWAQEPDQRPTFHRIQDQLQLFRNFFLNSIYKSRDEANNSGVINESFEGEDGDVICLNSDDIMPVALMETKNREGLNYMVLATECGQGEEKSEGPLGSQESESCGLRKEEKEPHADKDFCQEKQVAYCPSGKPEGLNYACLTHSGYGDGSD
Procedure: The substrate that was phosphorylated by the kinase, polyglutamate-tyrosine (PolyGT), was purchased from Sigma (P0275, lot 120M5007V).
All other reagents were purchased from Sigma Aldrich. A Tecan Ultra microplate reader with XFluor4 software (Tecan, V4.51) and RdrOle software (Tecan, V4.50) were used in this study.
ROS1 kinase phosphorylated the polyGT substrate using the ATP cofactor and produced ADP. […] The reactions, in microtubes, were incubated for 60 minutes at 25° C. in a water bath. Following this 60 minute incubation, 10 μL aliquots were transferred to microplates and the kinase activity was evaluated using the Promega ADP-glo system that monitored, in an endpoint assay, ADP produced when ROS1 kinase phosphorylated the PolyGT substrate.
It should be noted that numerous controls were tested and included the assay components indicated in the columns of Table 10 below (where + indicates the component was included and an empty space indicates it was not included).
The Kinase Assays, as described in Section II above, were run in triplicate or quadruplicate in microplates. Following these assays, the ADP-glo detection system (Promega) was used to determine how much ADP had been produced.
For 10 μL volume assays, to each microplate well containing 10 μL of kinase reaction was added ADP-glo reagent (10 μL), the microplates were spun in a table top centrifuge (1000 rpm (123×g) for 1 minute) to ensure that no reagent remained on the walls of the individual wells, and then agitated for 1 minute to ensure optimal mixing. The microplates were incubated at 25° C. on a heat block for 40 minutes. Kinase detection reagent (20 μL) was then added and, as above, centrifugation and agitation was repeated; with the microplates being allowed to incubate at 25° C.±1° C. on a heat block for 40 minutes. Following the incubation of the kinase detection reagent, the microplates were read on a Tecan Ultra microplate reader. The Tecan Ultra contained a built-in plate definition file for the whole area 96-well, white Corning microplates; however a microplate definition file for the half area 96-well Corning plates was created using the RdrOle component of the Tecan Ultra software.
Therefore, each mole of PolyGT polymer of 20,000 g/mole would contain approximately 28 moles of the glu-glu-glu-glu-tyr “subpolymer.”
Typically, a 10 μL assay volume would contain 2 μg of the polyGT substrate. Assuming the lower polymer mass of 20,000 g/mol mass, this translates to approximately 10 μM polyGT per assay and […] glu-glu-glu-glu-tyr “subpolymer” per assay.
Data from ROS1 kinase assays run on the Tecan Ultra microplate spectrophotometer were collected in Microsoft Excel. Error calculations and graphical representations were performed in Microsoft Office Excel (Microsoft Corporation, Redmond, Wash., USA). Determination of IC25, IC50 and IC75 values were accomplished using Origin Lab software (OriginLab Corporation, Northampton, Mass., USA).

WT EGFR kinase = WT EGFR kinase (Homo sapiens, UniProt P00533)
Sequence of WT EGFR kinase (P00533 25-1210): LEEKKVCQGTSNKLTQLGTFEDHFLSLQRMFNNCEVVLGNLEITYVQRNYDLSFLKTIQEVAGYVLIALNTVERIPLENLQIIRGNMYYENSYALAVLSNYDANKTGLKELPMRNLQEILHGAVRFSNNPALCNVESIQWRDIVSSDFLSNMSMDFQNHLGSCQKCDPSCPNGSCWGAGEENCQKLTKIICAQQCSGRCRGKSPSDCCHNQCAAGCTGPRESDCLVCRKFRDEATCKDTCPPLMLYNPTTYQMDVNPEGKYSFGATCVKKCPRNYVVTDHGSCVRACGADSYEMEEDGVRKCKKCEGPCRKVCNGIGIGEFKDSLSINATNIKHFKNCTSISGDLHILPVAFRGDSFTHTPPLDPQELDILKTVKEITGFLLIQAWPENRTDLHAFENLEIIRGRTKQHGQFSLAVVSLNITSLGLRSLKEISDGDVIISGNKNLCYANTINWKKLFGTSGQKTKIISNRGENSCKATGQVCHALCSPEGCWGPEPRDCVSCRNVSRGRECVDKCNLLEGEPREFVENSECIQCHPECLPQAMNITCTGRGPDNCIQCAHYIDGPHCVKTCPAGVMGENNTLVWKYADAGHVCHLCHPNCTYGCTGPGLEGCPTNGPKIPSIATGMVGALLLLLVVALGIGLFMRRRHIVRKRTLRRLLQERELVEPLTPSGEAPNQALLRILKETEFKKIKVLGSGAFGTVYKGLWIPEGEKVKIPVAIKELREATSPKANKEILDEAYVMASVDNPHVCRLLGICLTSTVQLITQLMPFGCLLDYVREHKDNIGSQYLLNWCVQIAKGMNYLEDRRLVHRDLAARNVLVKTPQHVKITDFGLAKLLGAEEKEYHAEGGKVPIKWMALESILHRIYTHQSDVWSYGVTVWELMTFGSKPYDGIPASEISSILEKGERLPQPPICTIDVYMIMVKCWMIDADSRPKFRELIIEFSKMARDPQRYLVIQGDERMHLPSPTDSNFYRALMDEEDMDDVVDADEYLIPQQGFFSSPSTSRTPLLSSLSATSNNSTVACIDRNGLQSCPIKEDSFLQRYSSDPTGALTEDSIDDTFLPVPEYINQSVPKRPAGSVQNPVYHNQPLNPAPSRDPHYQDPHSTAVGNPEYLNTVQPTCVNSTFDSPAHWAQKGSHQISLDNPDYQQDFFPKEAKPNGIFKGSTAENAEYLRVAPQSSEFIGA

FTase = target: T4, FTase (Homo sapiens, UniProt P49354+P49356); experiment: FTase-mediated farnesylation of Dansyl-GCVLS peptide; type: biochemical
T4 construct: purchased Abcam
T4 sequence (P49356 whole entry, one chain of several): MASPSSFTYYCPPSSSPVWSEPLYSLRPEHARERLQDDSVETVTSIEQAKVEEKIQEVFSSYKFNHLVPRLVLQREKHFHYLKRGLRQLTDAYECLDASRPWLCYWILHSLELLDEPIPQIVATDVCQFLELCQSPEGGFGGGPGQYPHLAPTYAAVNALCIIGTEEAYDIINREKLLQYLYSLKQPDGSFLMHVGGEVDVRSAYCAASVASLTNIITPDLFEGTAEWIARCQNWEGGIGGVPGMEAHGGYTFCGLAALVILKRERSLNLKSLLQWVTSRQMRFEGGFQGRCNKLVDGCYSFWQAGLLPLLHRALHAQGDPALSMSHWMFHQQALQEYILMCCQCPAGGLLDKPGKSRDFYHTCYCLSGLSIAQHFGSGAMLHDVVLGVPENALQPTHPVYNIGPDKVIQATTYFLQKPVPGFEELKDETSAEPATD

With `O=S(=O)([O-])CCSSCCS(=O)(=O)[O-].[Na+].[Na+]` [Tavocept, disodium 2,2′-dithio-bis-ethane sulfonate] the “Trx migration on IEF gel” value (Recombinant human Trx [1]) was “shift in Trx migration”, the “Tavocept-derived mesna adducts per molecule of Grx” value [2] was “one to two” and the “Tris-glycine native gel electrophoresis profile of Trx” value (Recombinant human Trx [3]) was “altered Tris-glycine native gel electrophoresis profile”. For the same compound, the “Reduction of disulfide by TrxR alone” value (bovine TrxR) was “did not detectably reduce”, the “loss of ROS1 kinase activity” value (ROS1 kinase; 5 mM Tavocept incubated with ROS1 for 24 hours prior to ATP and polyGT, 100 μM ATP) was 15% and the “loss of ROS1 kinase activity” value (ROS1 kinase; 10 mM Tavocept incubated with ROS1 for 3 hours prior to ATP and polyGT, 100 μM ATP) was 16%. For the same compound, the “loss of ROS1 kinase activity” value (ROS1 kinase; 10 mM Tavocept incubated with ROS1 for 24 hours prior to ATP and polyGT, 100 μM ATP) was 31%, the “loss of ROS1 kinase activity” value (ROS1 kinase; 20 mM Tavocept incubated with ROS1 for 3 hours prior to ATP and polyGT, 100 μM ATP) was 26% and the “loss of ROS1 kinase activity” value (ROS1 kinase; 20 mM Tavocept incubated with ROS1 for 24 hours prior to ATP and polyGT, 100 μM ATP) was 48%. The “effect on ROS1 kinase activity” value (ROS1 kinase; Tavocept (2.5-20 mM) added simultaneously with ATP and polyGT) was “did not have a notable effect; also recorded: no discernible”, the “effect on crizotinib inhibition of ROS1 kinase activity” value (from here on “effect on crizotinib inhibition”) (ROS1 kinase; Tavocept (2.5 to 20 mM) incubated with ROS1 for 3 or 24 hours prior to crizotinib) was “additive manner” and the “effect on crizotinib inhibition” value (ROS1 kinase; Tavocept (2.5 to 20 mM) incubated with ROS1 for 3 or 24 hours prior to crizotinib, listed as BNP7787) was “additive effect”. The “effect on crizotinib inhibition” value (ROS1 kinase; Tavocept added simultaneously with crizotinib, 100 μM ATP) was “did not affect; also recorded: no discernible”, the inhibition (WT EGFR kinase) was 9% and the “effect on FTase activity” value (FTase) was “Inhibition”.
